Results from patent US8921367B2 (Amgen Inc., priority 2012, dated 2014).

Assays:
solid tumors = conditions: days 1 and 8 or days 1, 2 and 3 of 3-week cycle, cited from earlier work
[1] = test system: advanced refractory solid tumors; conditions: cited from earlier work
[2] = test system: advanced solid malignancies; conditions: cited from earlier work
advanced solid tumors = test: Ph I clinical dose escalation trial of oral AMG 900; tumor response by CT or MRI using RECIST criteria; format: in vivo, human
Excerpt: Some of the objectives for the study included (1) determination of the maximal tolerated dose (MTD) and if necessary, the MTD in conjunction with prophylactic amounts of granulocyte colony stimulating factor (GCSF); (2) to evaluate the PD effects of drug exposure on phospho-histone H3 (serine 10) proteins levels in tumor tissue; (3) to evaluate change in tumor volume by volumetric or MRI analysis; and (4) to evaluate tumor response assessed by CT or MRI using RECIST criteria. The clinical trial was conducted in accordance with the following design/protocol:
This is an open-label, sequential dose escalation study evaluating AMG 900 in subjects with advanced solid tumors. The study is being conducted in 2 parts: Part 1—Dose Escalation and Part 2—Dose Expansion. […] One cycle is defined as 14 days. Thus, 1 cycle=2 weeks (14 days) and DLT window=4 weeks (28 days).
In addition, treatment with proton pump inhibitors or H2 receptor antagonists was withheld at least 48 hours prior to the first dose of each treatment cycle until at least 1 hour after the fourth dose of a treatment cycle. Starting Dose:
In addition, treatment with proton pump inhibitors or H2 receptor antagonists were withheld at least 48 hours prior to the first dose of each treatment cycle until at least 1 hour after the fourth dose of a treatment cycle. One cycle was defined as 14 days. […] The investigator or sub-investigator performed a physical examination of each subject during clinic visits. A review of concomitant medications and an assessment of adverse events were performed at every visit.
Efficacy was assessed by standardized contrast-enhanced CT or MRI and evaluated according to RECIST criteria. RECIST 1.0 and RECIST 1.1 criteria is described in the Journal of National Cancer Institute, Vol. 92, No. 3:205-216, 2000 and European Journal of Cancer 45:228-247, 2009, respectively, both disclosures of which are hereby incorporated herein by reference in their entireties. CT or MRI scans with contrast were acquired at baseline, 4 weeks after cycle 1 day 1, 8 weeks after cycle 1 day 1, and every 8 weeks thereafter until disease progression. Scans were acquired with slice thickness of about 5 mm or less. Baseline imaging studies were performed within 2 weeks prior to study day 1, and where practicable, they were performed as close to the day of enrollment as possible.

AML = test: Ph I AML study of oral AMG 900; format: in vivo, human
Excerpt: The data for both studies are as follows:

[3] = Ph I dose escalation: MTD and DLT determination; format: in vivo, human; conditions: once daily oral, 4 days on/10 days off
Excerpt: The dose escalation part of the study was aimed at determining a maximum tolerated dose (MTD) and if necessary the MTD with prophylactic GCSF support (MTD-G), and evaluating the safety, tolerability, pharmacokinetics and pharmacodynamics of AMG 900 in subjects with advanced solid tumors.
A subsequent non-accelerated phase (SNAP) then commenced (≦50% dose escalations once the first grade 2 related toxicity occurred; ≦25% if a DLT occurs) in a standard 3+3 design at the dose level where DLT or possibly related grade 2 toxicity was observed. The percent of dose escalation depended upon toxicities observed in previous cohorts. Intra-subject dose escalation was not allowed. An MTD was determined without prophylactic GCSF support. If neutropenia (or neutropenia related toxicity) was dose limiting, then dose escalation proceeded with prophylactic GCSF support beginning at the dose level at which neutropenia (or neutropenia related toxicity) was dose limiting.

CA-125 = CA-125 in ovarian cancer patient of the Ph I trial; format: in vivo, human; conditions: platinum-sensitive ovarian cancer patient; 16 mg once daily, 8 mg cycles 4-15, 12 mg at cycle 16; end of cycle 16
Protocol: Disease progression by appearance of new bone lesions in CRPC in the dose expansion phase were evaluated with bone scans. Bone scans were performed at baseline, 4 weeks after cycle 1 day 1, 8 weeks after cycle 1 day 1, and every 8 weeks thereafter until disease progression. Efficacy in ovarian cancer and CRPC were evaluated based on the Rustin criteria (1996) and PCWG2 guidelines, respectively. CA-125 in ovarian cancer and PSA in CRPC were collected every 4 weeks.

[4] = test system: histone H3, a proximal substrate of aurora-B; test: In vivo phosphorylation of histone H3
[5] = test system: multiple tumor xenografts, including three MDR xenograft models resistant to paclitaxel or docetaxel; test: Growth of tumor xenografts; format: in vivo
advanced solid tumor = conditions: daily dosing 5 or 10 consecutive days in 3-week cycles; cited from earlier work

Structure (SMILES): Cc1cc(Nc2ncc(F)c(NC3C4C=CC(C4)C3C(N)=O)n2)ccc1N1CCN(C)CC1 (stereo not drawn) [AS703569]
- impact on the patient's solid tumors (solid tumors): no positive impact(s)
- tolerability (solid tumors; various dosages): tolerable

Structure (SMILES): CO[C@@H](C(=O)N1Cc2n[nH]c(NC(=O)c3ccc(N4CCN(C)CC4)cc3)c2C1)c1ccccc1 [Danusertib]
- amount that can be safely administered ([1]; over 24 hours in 14 day cycles without GCSF): ≤ 500 mg/m^2
- tumor response ([1]; within dose of 500 mg/m^2, small cell lung carcinoma, prolonged disease stabilization in other solid tumors): prolonged objective response

Structure (SMILES): CCN(CCCOc1ccc2c(Nc3cc(CC(=O)Nc4cccc(F)c4)n[nH]3)ncnc2c1)CCOP(=O)(O)O [AZD1152]
- dosage amount safely administered ([2]; 2 hour IV infusion every 7 days): ≤ 450 mg
- disease response ([2]; patients with rapidly progressive diseases, within 450 mg dose): significantly stabilize disease

Structure (SMILES): Cc1csc(-c2nnc(Nc3ccc(Oc4ncccc4-c4ccnc(N)n4)cc3)c3ccccc23)c1 [AMG 900, N-(4-((3-(2-amino-4-pyrimidinyl)-2-pyridinyl)oxy)phenyl)-4-(4-methyl-2-thienyl)-1-phthalazinamine]
- Observed Response to AMG 900 (advanced solid tumors; Patient No. 1, 1 mg once per day oral, 4 days on/10 days off, cholangiocarcinoma, at week 24): SD at week 24
- Observed Response to AMG 900 (advanced solid tumors; Patient No. 2, 8 mg once per day oral, 4 days on/10 days off, prostate, at week 8): SD at week 8
- Observed Response to AMG 900 (advanced solid tumors; Patient No. 3, 16 mg once per day oral, 4 days on/10 days off, ovarian, at week 40): SD at week 40
- Observed Response to AMG 900 (advanced solid tumors; Patient No. 4, 16 mg once per day oral, 4 days on/10 days off, breast, at week 4): SD at week 4
- Observed Response to AMG 900 (advanced solid tumors; Patient No. 5, 24 mg once per day oral, 4 days on/10 days off, colon, at week 8): SD at week 8
- Observed Response to AMG 900 (advanced solid tumors; Patient No. 6, 25 mg once per day oral, 4 days on/10 days off, rectal, at week 56): PD at week 56
- Observed Response to AMG 900 (advanced solid tumors; Patient No. 7, 24 mg once per day oral, 4 days on/10 days off, Medullary thyroid, at week 120): SD at week 120
- Observed Response to AMG 900 (advanced solid tumors; Patient No. 8, 30 mg + GCSF once per day oral, 4 days on/10 days off, endometrial, at Week 64): PR at Week 64;
- Observed Response to AMG 900 (advanced solid tumors; Patient No. 8, 30 mg + GCSF once per day oral, 4 days on/10 days off, endometrial, at week 72): SD at week 72
- Observed Response to AMG 900 (advanced solid tumors; Patient No. 9, 30 mg + GCSF once per day oral, 4 days on/10 days off, chondrosarcoma, at week 40): SD at week 40
- Observed Response to AMG 900 (advanced solid tumors; Patient No. 10, 40 mg + GCSF once per day oral, 4 days on/10 days off, colon, at week 32): SD at week 32
- Observed Response to AMG 900 (advanced solid tumors; Patient No. 11, 40 mg + GCSF once per day oral, 4 days on/10 days off, Non-small cell lung, at week 32): SD at week 32
- Observed Response to AMG 900 (advanced solid tumors; Patient No. 12, 50 mg + GCSF once per day oral, 4 days on/10 days off, thyroid, at week 32): SD at week 32
- Observed Response to AMG 900 (advanced solid tumors; Patient No. 13, 40 mg + GCSF once per day oral, 4 days on/10 days off, prostate, at week 8): SD at week 8
- lowest once daily dose at which anti cancer activity was observed (advanced solid tumors; once daily oral, 4 days on/10 days off): 8 mg
- decrease of long axis diameter of tumor versus base line diameter on day 1 (advanced solid tumors; patient with stage IV solid endometrial tumor, 30 mg + GCSF once daily, 4 days on/10 days off, week 24, CT, RECIST 1.0): approximately 50%
- reduction of short axis diameter of tumor versus base line diameter on day 1 (advanced solid tumors; patient with stage IV-B solid ovarian tumor, 30 mg once daily, 4 days on/10 days off, two cycles, week 4, RECIST 1.1): about 30%
- decrease in SLD (sum of long axis diameters) on CT (advanced solid tumors; platinum-sensitive ovarian cancer patient, 16 mg once daily, 8 mg cycles 4-15, 12 mg at cycle 16, 4-day on-10 day off, end of cycle 16): 16%
- reduction of short axis diameter of tumor (advanced solid tumors; same endometrial solid tumor, 30 mg once daily, week 16 after eight (8) cycles, CT, RECIST 1.1): up to 40%
- Observed Response to AMG 900 (AML; Patient No. 14, 80 mg once per day oral, 4 days on/10 days off): Active
- Observed Response to AMG 900 (AML; Patient No. 15, 80 mg once per day oral, 4 days on/10 days off): Active
- Observed Response to AMG 900 (AML; Patient No. 16, 30 mg once per day oral, 7 days on/7 days off): Active
- doses at which MTD's and DLT's were observed [3]: greater than 8 mg
- decrease in CA-125 (CA-125): 45%
- phosphorylation of histone H3 [4]: blocks the phosphorylation
- growth of tumor xenografts [5]: inhibits the growth

Structure (SMILES): CC(=O)NCC(=O)N1[C@@H]2CC[C@H]1c1ccc(Nc3ncc(C(F)(F)F)c(NC4CCC4)n3)cc12 [PF-03814735]
- objective response on the tumors (advanced solid tumor): NO objective response
